Test results: ChEMBL document CHEMBL4425173, “Synthesis, biological evaluation and molecular modeling studies of psammaplin A and its analogs as potent histone deacetylases inhibitors and cytotoxic agents” (Bioorg Med Chem Lett, 2016)
Calls of active or inactive are those of the source. The calls are words filed in the database; no cut-off is given here.

Tests used:
Histone deacetylase = experiment: Inhibition of HDAC in human HeLa cells using Fluor deLys as substrate assessed as deacetylation of substrate by fluorescence assay; assay type: cell-based
PC-3 = experiment: Cytotoxicity against human PC3 cells assessed as reduction in cell growth inhibition after 96 hrs by MTT assay; assay type: functional; conditions: PC-3, 96 h
A549 = experiment: Cytotoxicity against human A549 cells assessed as reduction in cell growth inhibition after 96 hrs by MTT assay; assay type: functional; conditions: A549, 96 h
MCF7 = experiment: Cytotoxicity against human MCF7 cells assessed as reduction in cell growth inhibition after 96 hrs by MTT assay; assay type: functional; conditions: MCF7, 96 h
HL-60 = experiment: Cytotoxicity against human HL60 cells assessed as reduction in cell growth inhibition after 72 hrs by trypan blue-staining based hemocytometric analysis; assay type: functional; conditions: HL-60, 72 h
[1] = molecular target: Histone deacetylase (Homo sapiens) (UniProt Q13547+O15379+Q9UBN7+Q92769+Q9UQL6+Q8WUI4+Q9BY41+Q96DB2+P56524+Q9UKV0+Q969S8); experiment: Inhibition of HDAC in human HL60 cells assessed as upregulation of H3 acetylation levels at 2 uM after 18 hrs by SDS-PAGE analysis; assay type: cell-based

| Compound | IC50 (Histone deacetylase) [µM] | GI50 (PC-3) [µM] | GI50 (A549) [µM] | GI50 (MCF7) [µM] | GI50 (HL-60) [µM] | H3 acetylation upregulation (active/not active) [1] |
| --- | --- | --- | --- | --- | --- | --- |
| O=C(NCCSSCCNC(=O)/C(Cc1ccc(Cl)cc1Cl)=N/O)/C(Cc1ccc(Cl)cc1Cl)=N/O | 0.28 | 4.61 | 6.79 | 4.98 | 0.87 | – |
| COc1ccc(C/C(=N\O)C(=O)NCCSSCCNC(=O)/C(Cc2ccc(OC)c(O)c2)=N/O)cc1O | 0.03 | 3.27 | 4.74 | 2.7 | 0.23 | Active |
| CO/N=C(\Cc1ccc(OC)cc1)C(=O)NCCSSCCNC(=O)/C(Cc1ccc(OC)cc1)=N/OC | 3.15 | 26.8 | 38.3 | 16.4 | 5.18 | – |
| O=C(NCCSSCCNC(=O)/C(Cc1ccc2c(c1)OCO2)=N/O)/C(Cc1ccc2c(c1)OCO2)=N/O | 0.13 | 2.4 | 4.78 | 3.77 | 0.67 | Active |
| CO/N=C(\Cc1ccc(Cl)cc1Cl)C(=O)NCCSSCCNC(=O)/C(Cc1ccc(Cl)cc1Cl)=N/OC | 8.59 | > 50 | 47.1 | 16.5 | 8.64 | – |
| O=C(NCCSSCCNC(=O)c1cc(-c2ccc(O)cc2)[nH]n1)c1cc(-c2ccc(O)cc2)[nH]n1 | 1.81 | 19.8 | – | – | 4.11 | – |
| COc1ccc(-c2cc(C(=O)NCCSSCCNC(=O)c3cc(-c4ccc(OC)c(Br)c4)on3)no2)cc1Br | 4.65 | 39 | – | – | 13.3 | – |
| O=C(NCCSSCCNC(=O)/C(Cc1cccc(C(F)(F)F)c1)=N/O)/C(Cc1cccc(C(F)(F)F)c1)=N/O | 0.27 | 6.78 | 4.48 | 3.48 | 0.52 | – |
| COc1cc(C/C(=N\O)C(=O)NCCSSCCNC(=O)/C(Cc2ccc(O)c(OC)c2)=N/O)ccc1O | 0.04 | 3.41 | 4.84 | 2.47 | 0.28 | Active |
| Cc1ccc(C/C(=N\O)C(=O)NCCSSCCNC(=O)/C(Cc2ccc(C)cc2)=N/O)cc1 | 0.26 | 6.43 | 8.35 | 4.3 | 0.74 | Active |
| CO/N=C(\Cc1cccc(Cl)c1)C(=O)NCCSSCCNC(=O)/C(Cc1cccc(Cl)c1)=N/OC | 4.5 | 23.1 | 32 | 14.3 | 6.55 | – |
| COc1ccc(-c2cc(C(=O)NCCSSCCNC(=O)c3cc(-c4ccc(OC)c(Br)c4)[nH]n3)n[nH]2)cc1Br | 1.86 | 16.9 | – | – | 5.52 | – |
| O=C(NCCSSCCNC(=O)/C(Cc1ccc(O)c(Br)c1)=N/O)/C(Cc1ccc(O)c(Br)c1)=N/O [PSAMMAPLIN A] | 0.05 | 3.52 | 4.5 | 2.26 | 0.29 | Active |
| O=C(NCCSSCCNC(=O)c1cc(-c2ccc(O)c(Br)c2)[nH]n1)c1cc(-c2ccc(O)c(Br)c2)[nH]n1 | 0.68 | 17.1 | – | – | 6.14 | – |
| O=C(NCCSSCCNC(=O)/C(Cc1cccc(Cl)c1)=N/O)/C(Cc1cccc(Cl)c1)=N/O | 0.21 | 5.19 | 5.42 | 3.51 | 0.57 | – |
| O=C(NCCSSCCNC(=O)/C(Cc1ccc(O)cc1)=N/O)/C(Cc1ccc(O)cc1)=N/O | 0.12 | 5.33 | 6.54 | 4.62 | 0.62 | – |
| COc1ccc(-c2cc(C(=O)NCCSSCCNC(=O)c3cc(-c4ccc(OC)cc4)[nH]n3)n[nH]2)cc1 | 2.77 | 26.6 | – | – | 6.45 | – |
| CC(C)c1ccc(C/C(=N\O)C(=O)NCCSSCCNC(=O)/C(Cc2ccc(C(C)C)cc2)=N/O)cc1 | 0.21 | 2.67 | 4.61 | 3.91 | 0.5 | – |
| COc1ccc(-c2cc(C(=O)NCCSSCCNC(=O)c3cc(-c4ccc(OC)cc4)on3)no2)cc1 | 8.31 | > 50 | – | – | 18.3 | – |
| O=C(NCCSSCCNC(=O)c1cc(-c2ccc(O)cc2)on1)c1cc(-c2ccc(O)cc2)on1 | 3.14 | 31.7 | – | – | 11.6 | – |
| COc1ccc(C/C(=N\O)C(=O)NCCSSCCNC(=O)/C(Cc2ccc(OC)cc2)=N/O)cc1 | 0.12 | 5.5 | 6.85 | 2.68 | 0.78 | – |
| CO/N=C(\Cc1ccc(C)cc1)C(=O)NCCSSCCNC(=O)/C(Cc1ccc(C)cc1)=N/OC | 7.65 | > 50 | > 50 | > 50 | 11.9 | inactive |
